± gives the standard deviation of the averaged measurements.
Assays:
Danio rerio embryo [1] = test: spontaneous tail coiling frequency (coils/min/embryo); higher = more spontaneous movement; settings: 25 hpf
Description: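 Spontaneous tail coilings of zebrafish embryos exposed from 2 hpf were recorded at 24-25 hpf in 1-min videos and detected by a KNIME workflow from grey-value variance. Betamethasone was tested as the dipropionate, diflorasone as the diacetate.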

Danio rerio embryo [2] = settings: exposure time: 4 dpf
Description: (§1)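 Zebrafish embryos (UFZ-OBI strain) were exposed from 2 hpf for 48 h (2 dpf) or 96 h (4 dpf) at 28 °C; spontaneous tail coiling was scored at 25 hpf. Morphological features from automated image analysis (FishInspector), heart rate and locomotor response were fitted with drc models. Quantal endpoints were dichotomised at 2.5 SD from controls and fitted with a log-logistic model; heart rate, pigmentation and STC were normalised to the replicate control mean. Betamethasone was tested as betamethasone dipropionate, diflorasone as diflorasone diacetate.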

Danio rerio embryo [3] = tested on: Danio rerio embryo
Description: as §1

Danio rerio embryo [4] = settings: exposure time: 4 dpf; remark: listed apart in the source
Description: as §1

Danio rerio embryo [5] = test: EC50 Eye size_Decrease; settings: exposure time: 2 dpf
Description: as §1

Danio rerio embryo [6] = test: EC50 Curvature_Increase
Description: as §1

Danio rerio embryo [7] = test: EC50 Head size_Decrease; settings: exposure time: 2 dpf
Description: as §1

Danio rerio embryo [8] = test: EC50 Body length_Decrease
Description: as §1

Danio rerio embryo [9] = test: EC50 Bladder size_Decrease; settings: exposure time: 4 dpf
Description: as §1

Danio rerio embryo [10] = test: EC50 Pericard size_Increase; settings: exposure time: 2 dpf
Description: as §1

Danio rerio embryo [11] = test: EC50 Yolk sac size_Increase
Description: as §1

Danio rerio embryo [12] = test: EC50 Head trunk angle_Decrease; settings: exposure time: 2 dpf
Description: as §1

Danio rerio embryo [13] = test: EC50 Eye-jaw distance_Decrease; settings: exposure time: 4 dpf
Description: as §1

Danio rerio embryo [14] = test: EC10 LMR dark; higher = less potent; settings: exposure time: 4 dpf
Description: as §1

Danio rerio embryo [15] = test: EC20 LMR dark; higher = less potent; settings: exposure time: 4 dpf
Description: as §1

Danio rerio embryo [16] = test: EC10 Lack of SB; higher = less potent; settings: exposure time: 4 dpf
Description: as §1

Danio rerio embryo [17] = test: EC20 Lack of SB; higher = less potent; settings: exposure time: 4 dpf
Description: as §1

Danio rerio embryo [18] = test: EC20 Any effect; higher = less potent
Description: as §1

Danio rerio embryo [19] = test: EC10 Any effect; higher = less potent
Description: as §1

Danio rerio embryo [20] = test: EC10 STC decrease; higher = less potent; settings: exposure time: 25 h
Description: as §1

Danio rerio embryo [21] = test: EC20 STC decrease; higher = less potent; settings: exposure time: 25 h
Description: as §1

Danio rerio embryo [22] = test: EC20 Eye size_Decrease; higher = less potent; settings: exposure time: 2 dpf
Description: as §1

Danio rerio embryo [23] = test: EC10 Eye size_Decrease; higher = less potent; settings: exposure time: 2 dpf
Description: as §1

Danio rerio embryo [24] = test: EC10 Curvature_Increase; higher = less potent
Description: as §1

Danio rerio embryo [25] = test: EC10 LMR ligth decrease; higher = less potent; settings: exposure time: 4 dpf
Description: as §1

Danio rerio embryo [26] = test: EC20 Head size_Decrease; higher = less potent; settings: exposure time: 2 dpf
Description: as §1

Danio rerio embryo [27] = test: EC20 LMR ligth decrease; higher = less potent; settings: exposure time: 4 dpf
Description: as §1

Danio rerio embryo [28] = test: EC20 Curvature_Increase; higher = less potent
Description: as §1

Danio rerio embryo [29] = test: EC10 Head size_Decrease; higher = less potent; settings: exposure time: 2 dpf
Description: as §1

Danio rerio embryo [30] = test: EC20 Body length_Decrease; higher = less potent
Description: as §1

Danio rerio embryo [31] = test: EC10 Body length_Decrease; higher = less potent
Description: as §1

Danio rerio embryo [32] = test: EC10 Bladder size_Decrease; higher = less potent; settings: exposure time: 4 dpf
Description: as §1

Danio rerio embryo [33] = test: EC20 Bladder size_Decrease; higher = less potent; settings: exposure time: 4 dpf
Description: as §1

Danio rerio embryo [34] = test: EC20 Yolk sac size_Increase; higher = less potent
Description: as §1

Danio rerio embryo [35] = test: EC20 Pericard size_Increase; higher = less potent; settings: exposure time: 2 dpf
Description: as §1

Danio rerio embryo [36] = test: EC10 Yolk sac size_Increase; higher = less potent
Description: as §1

Danio rerio embryo [37] = test: EC10 Pericard size_Increase; higher = less potent; settings: exposure time: 2 dpf
Description: as §1

Danio rerio embryo [38] = test: EC10 Head trunk angle_Decrease; higher = less potent; settings: exposure time: 2 dpf
Description: as §1

Danio rerio embryo [39] = test: EC20 Eye-jaw distance_Decrease; higher = less potent; settings: exposure time: 4 dpf
Description: as §1

Danio rerio embryo [40] = test: EC10 Eye-jaw distance_Decrease; higher = less potent; settings: exposure time: 4 dpf
Description: as §1

Danio rerio embryo [41] = test: EC20 Head trunk angle_Decrease; higher = less potent; settings: exposure time: 2 dpf
Description: as §1

SMILES: CC(=O)Nc1ccc(O)cc1 [acetaminophen]
- spontaneous tail coiling frequency (Danio rerio embryo [1]; 230 µM): 2.54
- spontaneous tail coiling frequency (Danio rerio embryo [1]; 470 µM): 1.5
- spontaneous tail coiling frequency (Danio rerio embryo [1]; 940 µM): 2.42
- spontaneous tail coiling frequency (Danio rerio embryo [1]; 1875 µM): 2.5
- spontaneous tail coiling frequency (Danio rerio embryo [1]; 1876 µM): 3.01
- spontaneous tail coiling frequency (Danio rerio embryo [1]; 3750 µM): 3.63 ± 0.19
- spontaneous tail coiling frequency (Danio rerio embryo [1]; 6250 µM): 3.44
- spontaneous tail coiling frequency (Danio rerio embryo [1]; 7500 µM): 1.69
- spontaneous tail coiling frequency (Danio rerio embryo [1]; 15000 µM): 0

SMILES: CC1=C(/C=C/C(C)=C/C=C/C(C)=C/C(=O)O)C(C)(C)CCC1 [all-trans retinoic acid]
- EC50 Lack of SB (Danio rerio embryo [2]): 20 nM
- EC50 Any effect (Danio rerio embryo [3]; exposure time: 2 dpf): 9 nM
- EC50 Any effect (Danio rerio embryo [3]; exposure time: 4 dpf): 11 nM
- EC50 LMR ligth decrease (Danio rerio embryo [3]; exposure time: 4 dpf): 27.4 nM
- EC50 STC decrease (Danio rerio embryo [3]; exposure time: 25 h): 76 nM
- EC50 LMR dark (Danio rerio embryo [4]): 36 nM
- EC50 Eye size Decrease (Danio rerio embryo [5]): 38 nM
- EC50 Curvature Increase (Danio rerio embryo [6]; exposure time: 2 dpf): 13 nM
- EC50 Curvature Increase (Danio rerio embryo [6]; exposure time: 4 dpf): 10 nM
- EC50 Head size Decrease (Danio rerio embryo [7]): 42 nM
- EC50 Body length Decrease (Danio rerio embryo [8]; exposure time: 2 dpf): 36 nM
- EC50 Body length Decrease (Danio rerio embryo [8]; exposure time: 4 dpf): 48 nM
- EC50 Bladder size Decrease (Danio rerio embryo [9]): 17 nM
- EC50 Pericard size Increase (Danio rerio embryo [10]): 39 nM
- EC50 Yolk sac size Increase (Danio rerio embryo [11]; exposure time: 2 dpf): 45 nM
- EC50 Yolk sac size Increase (Danio rerio embryo [11]; exposure time: 4 dpf): 39 nM
- EC50 Head trunk angle Decrease (Danio rerio embryo [12]): 11 nM
- EC50 Eye-jaw distance Decrease (Danio rerio embryo [13]): 33 nM
- EC10 LMR dark (Danio rerio embryo [14]): 16 nM
- EC20 LMR dark (Danio rerio embryo [15]): 22 nM
- EC10 Lack of SB (Danio rerio embryo [16]): 12 nM
- EC20 Lack of SB (Danio rerio embryo [17]): 15 nM
- EC20 Any effect (Danio rerio embryo [18]; exposure time: 2 dpf): 8 nM
- EC20 Any effect (Danio rerio embryo [18]; exposure time: 4 dpf): 7 nM
- EC10 Any effect (Danio rerio embryo [19]; exposure time: 2 dpf): 8 nM
- EC10 Any effect (Danio rerio embryo [19]; exposure time: 4 dpf): 6 nM
- EC10 STC decrease (Danio rerio embryo [20]): 1.22 nM
- EC20 STC decrease (Danio rerio embryo [21]): 5.6 nM
- EC20 Eye size Decrease (Danio rerio embryo [22]): 36 nM
- EC10 Eye size Decrease (Danio rerio embryo [23]): 34 nM
- EC10 Curvature Increase (Danio rerio embryo [24]; exposure time: 2 dpf): 7 nM
- EC10 Curvature Increase (Danio rerio embryo [24]; exposure time: 4 dpf): 6 nM
- EC10 LMR ligth decrease (Danio rerio embryo [25]): 1.7 nM
- EC20 Head size Decrease (Danio rerio embryo [26]): 26 nM
- EC20 LMR ligth decrease (Danio rerio embryo [27]): 4.75 nM
- EC20 Curvature Increase (Danio rerio embryo [28]; exposure time: 2 dpf): 9 nM
- EC20 Curvature Increase (Danio rerio embryo [28]; exposure time: 4 dpf): 7 nM
- EC10 Head size Decrease (Danio rerio embryo [29]): 19 nM
- EC20 Body length Decrease (Danio rerio embryo [30]; exposure time: 2 dpf): 33 nM
- EC20 Body length Decrease (Danio rerio embryo [30]; exposure time: 4 dpf): 30 nM
- EC10 Body length Decrease (Danio rerio embryo [31]; exposure time: 2 dpf): 31 nM
- EC10 Body length Decrease (Danio rerio embryo [31]; exposure time: 4 dpf): 23 nM
- EC10 Bladder size Decrease (Danio rerio embryo [32]): 11 nM
- EC20 Bladder size Decrease (Danio rerio embryo [33]): 12 nM
- EC20 Yolk sac size Increase (Danio rerio embryo [34]; exposure time: 2 dpf): 21 nM
- EC20 Yolk sac size Increase (Danio rerio embryo [34]; exposure time: 4 dpf): 36 nM
- EC20 Pericard size Increase (Danio rerio embryo [35]): 36 nM
- EC10 Yolk sac size Increase (Danio rerio embryo [36]; exposure time: 2 dpf): 13 nM
- EC10 Yolk sac size Increase (Danio rerio embryo [36]; exposure time: 4 dpf): 34 nM
- EC10 Pericard size Increase (Danio rerio embryo [37]): 35 nM
- EC10 Head trunk angle Decrease (Danio rerio embryo [38]): 2 nM
- EC20 Eye-jaw distance Decrease (Danio rerio embryo [39]): 28 nM
- EC10 Eye-jaw distance Decrease (Danio rerio embryo [40]): 25 nM
- EC20 Head trunk angle Decrease (Danio rerio embryo [41]): 4 nM
- spontaneous tail coiling frequency (Danio rerio embryo [1]; 1 µM): 3.33
- spontaneous tail coiling frequency (Danio rerio embryo [1]; 6.25 µM): 2.34 ± 0.24
- spontaneous tail coiling frequency (Danio rerio embryo [1]; 12.5 µM): 2.17 ± 0.16
- spontaneous tail coiling frequency (Danio rerio embryo [1]; 25 µM): 2.1 ± 0.75
- spontaneous tail coiling frequency (Danio rerio embryo [1]; 50 µM): 1.74 ± 0.17
